Laboratory results reported in patent US7442240B2, “Alkoxylpropylisothiazolinone and preparation method and use thereof” (Ocean University of China, priority 2004, dated 2008).

Experiments:
coliform bacteria = assay: lowest bacteriostasis concentration, tube double dilution method; type: cell-based; settings: 10^7 cfu/ml, 24 hours, 37° C.
Description: (§1) The lowest bacteriostasis concentration of the six kinds of the alkoxylpropylisothiazolinone of the present invention is measured through the tube double dilution method. In a Φ18×180 mm tube, 5 ml aseptic culture medium was added, then 50 μl bacteria suspended liquid of coliform was injected to prepare culture solution of beef extract peptone having bacteria concentration of 10^7 cfu/ml, then 50 μl tetrahydrofuran solution containing 4,5-dichloro-2-isopropoxypropyl-4-isothiazolin-3-one with the concentration of 2 μg/ml, 4 μg/ml, 8 μg/ml, 16 μg/ml, 32 μg/ml were added respectively. After cultured for 24 hours under a constant temperature of 37° C., the lowest bacteriostasis concentration of 4,5-dichloro-2-isopropoxypropyl-4-isothiazolin-3-one against coliform bacteria was measured. The result is 8 μg/ml (the cfu is a colong forming unit, 1 cfu refer to one single colong formed on the agar plate after being cultured).

heterotrophic bacteria = assay: sterilization test in industrial cooling (circulating) water system; settings: for control and sterilization of microorganism in industry cooling water (in words): industrial cooling water; for the amount of the heterotrophic bacteria, virtual result / the rate of sterilization: 50 mg/L medicament
Description: The compound of the present invention may be used to control and sterilize alga, fungi and bacteria in the industrial cooling water system. First, chlorine was stopped adding into the circulating water system for 3 days before administration. The total amount of the heterotrophic bacteria in the circulating water was raised, and then the 4,5-dichloro-2-methoxyethoxypropyl-4-isothiazolin-3-one was thrown in, while the discharge of the water was stopped. The amount of the heterotrophic bacteria in water and the sterilization rate was measured at 4 hours, 12 hours, 24 hours, 36 hours after the medicament was added.

staphylococcus aureus = assay: lowest bacteriostasis concentration, tube double dilution method; type: cell-based; settings: 24 hours, 37° C.
Description: as §1
(§2) When the coliform bacteria of the present invention is replaced with saccharomyces cerevisiae or staphylococcus aureus, and the 4,5-dichloro-2-isopropoxypropyl-4-isothiazolin-3-one is replaced with 4,5-dichloro-2-methoxy-propyl-4-isothiazolin-3-one, 4,5-dichloro-2-ethoxypropyl-4-isothiazolin-3-one, 4,5-dichloro-2-butoxypropyl-4-isothiazolin-3-one, 4,5-dichloro-2-methoxyethoxypropyl-4-isothiazolin-3-one, or 4,5-dichloro-2-chlorophenoxyethoxypropyl-4-isothiazolin-3-one, a considerable experimental results are also received, which are shown in the following table.

saccharomyces cerevisiae = assay: as above; type: cell-based; settings: 24 hours, 37° C.
Description: as §1, §2

leaf spot of beet = assay: drug action and field test against leaf spot of beet; type: in vivo
Description: Otherwise, it has also a good prevent function to the apple ring rot, tomato gray mold and cotton soreshin. For example, when the 4,5-dichloro-2-isopropoxypropyl-4-isothiazolin-3-one is used as bactericide, it is merely required 39 g pure medicament per mu ( 1/15 of a hectare) with the concentration of 250 ppm to control the leaf spot of bee, and the efficiency of the prevention and cure is up to 75.0%.

Structure (SMILES) | lowest bacteriostasis concentration (coliform bacteria) [µg/mL] | control and sterilization of microorganism in industry cooling water (in words) (heterotrophic bacteria) | lowest bacteriostasis concentration (staphylococcus aureus) [µg/mL] | lowest bacteriostasis concentration (saccharomyces cerevisiae) [µg/mL] | effect of the prevention and cure (in words) (leaf spot of beet) | efficiency of the prevention and cure (leaf spot of beet; 39 g pure medicament per mu, 250 ppm) | the amount of the heterotrophic bacteria, virtual result (heterotrophic bacteria; 4 h after addition) | the rate of sterilization (heterotrophic bacteria; 4 h after addition) [%] | the amount of the heterotrophic bacteria, virtual result (heterotrophic bacteria; 12 h after addition) | the rate of sterilization (heterotrophic bacteria; 12 h after addition) [%] | the amount of the heterotrophic bacteria, virtual result (heterotrophic bacteria; 24 h after addition) | the rate of sterilization (heterotrophic bacteria; 24 h after addition) [%] | the amount of the heterotrophic bacteria, virtual result (heterotrophic bacteria; 36 h after addition) | the rate of sterilization (heterotrophic bacteria; 36 h after addition) [%]
CCCCOCCCn1sc(Cl)c(Cl)c1=O | 4 | controlled and sterilized effectively | 8 | 4 | – | – | – | – | – | – | – | – | – | –
COCCCn1sc(Cl)c(Cl)c1=O | 4 | controlled and sterilized effectively | 32 | 16 | – | – | – | – | – | – | – | – | – | –
O=c1c(Cl)c(Cl)sn1CCCOCCOc1ccc(Cl)cc1 [4,5-dichloro-2-chlorophenoxyethoxypropyl-4-isothiazolin-3-one] | 8 | – | 16 | 8 | – | – | – | – | – | – | – | – | – | –
COC(COC(C)Cn1sc(Cl)c(Cl)c1=O)OC (centres unmarked) [4,5-dichloro-2-dimethoxyethoxypropyl-4-isothiazolin-3-one] | – | – | – | – | considerable effect of the prevention and cure | – | – | – | – | – | – | – | – | –
CCOCCCn1sc(Cl)c(Cl)c1=O [4,5-dichloro-2-ethoxypropyl-4-isothiazolin-3-one] | 4 | controlled and sterilized effectively | 16 | 8 | considerable effect of the prevention and cure | – | – | – | – | – | – | – | – | –
CC(C)OCCCn1sc(Cl)c(Cl)c1=O [4,5-dichloro-2-isopropoxypropyl-4-isothiazolin-3-one] | 8 | controlled and sterilized effectively | 16 | 8 | considerable effect of the prevention and cure | up to 75.0% | – | – | – | – | – | – | – | –
COCCOCCCn1sc(Cl)c(Cl)c1=O [4,5-dichloro-2-methoxyethoxypropyl-4-isothiazolin-3-one] | 16 | – | 16 | 16 | considerable effect of the prevention and cure | – | 2.0 × 10^5 number/mL | 99.33 | 4.0 × 10^4 number/mL | 99.87 | 3.0 × 10^4 number/mL | 99.90 | 3.3 × 10^4 number/mL | 99.89
